SMILES strings stand for the structures.

The target in the assay is T1, human TLR9 (Homo sapiens, UniProt Q9NR96).
T1 sequence (Q9NR96 26-1032): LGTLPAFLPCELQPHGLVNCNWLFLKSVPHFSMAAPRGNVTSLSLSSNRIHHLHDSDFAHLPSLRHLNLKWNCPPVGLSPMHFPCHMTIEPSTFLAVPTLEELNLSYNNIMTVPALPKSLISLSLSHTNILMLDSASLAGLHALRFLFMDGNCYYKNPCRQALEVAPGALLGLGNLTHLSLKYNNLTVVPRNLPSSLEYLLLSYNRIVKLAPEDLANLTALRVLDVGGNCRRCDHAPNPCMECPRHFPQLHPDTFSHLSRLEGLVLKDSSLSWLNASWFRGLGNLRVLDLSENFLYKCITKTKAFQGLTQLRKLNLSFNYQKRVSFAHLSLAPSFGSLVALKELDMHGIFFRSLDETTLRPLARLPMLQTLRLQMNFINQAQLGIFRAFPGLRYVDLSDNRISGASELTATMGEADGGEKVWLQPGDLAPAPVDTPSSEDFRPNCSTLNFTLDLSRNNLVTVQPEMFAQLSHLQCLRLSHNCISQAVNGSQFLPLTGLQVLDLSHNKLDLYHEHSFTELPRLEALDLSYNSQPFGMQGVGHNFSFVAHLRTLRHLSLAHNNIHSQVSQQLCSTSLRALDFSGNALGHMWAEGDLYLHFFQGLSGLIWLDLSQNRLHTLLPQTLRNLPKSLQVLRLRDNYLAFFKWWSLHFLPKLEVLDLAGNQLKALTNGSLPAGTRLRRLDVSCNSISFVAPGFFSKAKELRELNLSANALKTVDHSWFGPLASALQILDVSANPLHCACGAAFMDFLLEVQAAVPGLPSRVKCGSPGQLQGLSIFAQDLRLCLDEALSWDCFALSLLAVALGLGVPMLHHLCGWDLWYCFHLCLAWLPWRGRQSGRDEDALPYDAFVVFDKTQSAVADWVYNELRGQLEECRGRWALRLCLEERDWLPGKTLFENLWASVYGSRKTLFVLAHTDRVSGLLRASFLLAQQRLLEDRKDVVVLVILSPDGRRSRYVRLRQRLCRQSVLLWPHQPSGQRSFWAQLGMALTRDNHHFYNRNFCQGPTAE
The assay is described as follows: HEK293-Blue-hTLR-9 cells assay. The format is cell-based. Conditions: HEK293-Blue-hTLR9 cells, SEAP reporter, ODN2006 stimulation, 20 hrs. From the text:
HEK293-Blue-hTLR-9 Cells Assay:
A stable HEK293-Blue-hTLR-9 cell line was purchased from InvivoGen (Cat. #: hkb-htlh9, San Diego, Calif., USA). These cells were originally designed for studying the stimulation of human TLR9 by monitoring the activation of NF-κB. A SEAP (secreted embryonic alkaline phosphatase) reporter gene was placed under the control of the IFN-β minimal promoter fused to five NF-κB and AP-1-binding sites. The SEAP was induced by activating NF-κB and AP-1 via stimulating HEK-Blue hTLR9 cells with TLR9 ligands. Therefore the reporter expression was declined by TLR9 antagonist under the stimulation of a ligand, such as ODN2006 (Cat. #: tlrl-2006-1, Invivogen, San Diego, Calif., USA), for incubation of 20 hrs. The cell culture supernatant SEAP reporter activity was determined using QUANTI-Blue™ kit (Cat. #: rep-qb1, Invivogen, San Diego, Calif., USA) at a wavelength of 640 nm, a detection medium that turns purple or blue in the presence of alkaline phosphatase.
HEK293-Blue-hTLR9 cells were incubated at a density of 250,000-450,000 cells/mL in a volume of 170 μL in a 96-well plate in Dulbecco's Modified Eagle's medium (DMEM) containing 4.5 g/L glucose, 50 U/mL penicillin, […], […], 2 mM L-glutamine, 10% (v/v) heat-inactivated fetal bovine serum with addition of 20 sL test compound in a serial dilution in the presence of final DMSO at 1% and 10 sL of 20 uM ODN2006 in above DMEM, perform incubation under 37° C. in a CO2 incubator for 20 hrs. Then 20 sL of the supernatant from each well was incubated with 180 μL Quanti-blue substrate solution at 37° C. for 2 hrs and the absorbance was read at 620-655 nm using a spectrophotometer. The signalling pathway that TLR9 activation leads to downstream NF-x3B activation has been widely accepted, and therefore similar reporter assay was modified for evaluating TLR9 antagonist.
As for `O=C(NC1CC2(CCNCC2)C1)C1CN(c2ccc(C(F)(F)F)c3nccnc23)CC12CC2` (stereo not drawn) [Example 34, N-(7-azaspiro[3.5]nonan-2-yl)-5-[8-(trifluoromethyl)quinoxalin-5-yl]-5-azaspiro[2.4]heptane-7-carboxamide], the IC50 was 16.7 µM.
Compound `CN1CCC(NC(=O)C2CN(c3ccc(C#N)c4ncccc34)CC23CC3)CC1` (single isomer, unassigned) [Example 41A, 5-(8-Cyano-5-quinolyl)-N-(1-methyl-4-piperidyl)-5-azaspiro[2.4]heptane-7-carboxamide] showed an IC50 of 4.5 µM.
Regarding `C[C@@H]1CN(c2ccc(C#N)c3ncccc23)C[C@H]1C(=O)N1CCC2(CCNC2)C1` (relative stereo) [Example 53, Trans-5-[3-(2,7-diazaspiro[4.4]nonane-2-carbonyl)-4-methyl-pyrrolidin-1-yl]quinoline-8-carbonitrile], the IC50 is 2.6 µM.
For the compound `CN1CCC(NC(=O)C2CN(c3ccc(C#N)c4ncccc34)CC2C(F)(F)F)CC1` (stereo not drawn) [Example 18, 1-(8-Cyano-5-quinolyl)-N-(1-methyl-4-piperidyl)-4-(trifluoromethyl)pyrrolidine-3-carboxamide], the IC50 amounted to 10.8 µM.
For the compound `O=C(NC1CC2COCC(C1)N2)C1CN(c2ccc(C(F)(F)F)c3nccnc23)CC12CC2` (stereo not drawn) [Example 6, N-(3-oxa-9-azabicyclo[3.3.1]nonan-7-yl)-5-[8-(trifluoromethyl)quinoxalin-5-yl]-5-azaspiro[2.4]heptane-7-carboxamide], the IC50 stood at 1.4 µM.
In the case of `N[C@H]1CC[C@H](NC(=O)C2CN(c3ccc(C(F)(F)F)c4nccnc34)CC23CC3)CC1` (stereo partly drawn) [Example 24, N-(4-aminocyclohexyl)-5-[8-(trifluoromethyl)quinoxalin-5-yl]-5-azaspiro[2.4]heptane-7-carboxamide], the IC50 is 27.8 µM.
Consider `CN1CCC(NC(=O)[C@@H]2CN(c3ccc(C#N)c4ncccc34)C[C@H]2C2CC2)CC1` (relative stereo) [Example 14, Trans-1-(8-cyano-5-quinolyl)-4-cyclopropyl-N-(1-methyl-4-piperidyl)pyrrolidine-3-carboxamide], for which the IC50 is 4.5 µM.
`CN1CCC(NC(=O)[C@@H]2CN(c3ccc(C#N)c4ncccc34)C[C@H]2C(F)F)CC1` (relative stereo) [Example 40, Trans-1-(8-cyano-5-quinolyl)-4-(difluoromethyl)-N-(1-methyl-4-piperidyl)pyrrolidine-3-carboxamide] yielded an IC50 of 6.9 µM.
For the compound `CC[C@@H]1CN(c2ccc(C#N)c3ncccc23)C[C@H]1C(=O)NC1CCN(C)CC1` (relative stereo) [Example 29, Trans-1-(8-cyano-5-quinolyl)-4-ethyl-N-(1-methyl-4-piperidyl)pyrrolidine-3-carboxamide], the IC50 amounted to 6.9 µM.
With `O=C(NC1CC2CCCC(C1)N2)C1CN(c2ccc(C(F)(F)F)c3nccnc23)CC12CC2` (stereo not drawn) [Example 10, N-(9-azabicyclo[3.3.1]nonan-3-yl)-5-[8-(trifluoromethyl)quinoxalin-5-yl]-5-azaspiro[2.4]heptane-7-carboxamide] the figure was 9.5 µM; with `N#Cc1ccc(N2CC(C(=O)NC[C@H]3CNCCO3)C3(CC3)C2)c2nccnc12` (single isomer, unassigned) [Example 70B], 2.8 µM.
In turn, `NC1CC(CNC(=O)C2CN(c3ccc(C(F)(F)F)c4nccnc34)CC23CC3)C1` (stereo not drawn) [Example 31, N-[(3-aminocyclobutyl)methyl]-5-[8-(trifluoromethyl)quinoxalin-5-yl]-5-azaspiro[2.4]heptane-7-carboxamide] registered an IC50 of 9.3 µM.
In the case of `N[C@H]1CC[C@@H](NC(=O)C2CN(c3ccc(C(F)(F)F)c4nccnc34)CC23CC3)CC1` (stereo partly drawn) [Example 39, N-(4-Aminocyclohexyl)-5-[8-(trifluoromethyl)quinoxalin-5-yl]-5-azaspiro[2.4]heptane-7-carboxamide], 21.1 µM corresponded to half-maximal inhibition (IC50).
`CN1CCC(NC(=O)C2CN(c3ccc(C#N)c4nccnc34)CC23CC3)CC1` (single isomer, unassigned) [Example 7A, 5-(8-Cyanoquinoxalin-5-yl)-N-(1-methyl-4-piperidyl)-5-azaspiro[2.4]heptane-7-carboxamide] showed an IC50 of 3.2 µM.
`CN1CCC(NC(=O)[C@@H]2CN(c3ccc(C#N)c4ncccc34)C[C@H]2C(F)(F)F)CC1` (relative stereo) [Example 17, Trans-1-(8-cyano-5-quinolyl)-N-(1-methyl-4-piperidyl)-4-(trifluoromethyl)pyrrolidine-3-carboxamide] yielded an IC50 of 1 µM.
The same measure for `C[C@@H]1CN(c2ccc(C#N)c3ncccc23)C[C@H]1C(=O)NC1CCCNCC1` (single isomer, unassigned) [Example 52A, Trans-N-(azepan-4-yl)-1-(8-cyano-5-quinolyl)-4-methyl-pyrrolidine-3-carboxamide]: 12.3 µM; for `CN1CCCC(CNC(=O)C2CN(c3ccc(C#N)c4ncccc34)CC23CC3)C1` (stereo not drawn) [Example 51, 5-(8-Cyano-5-quinolyl)-N-[(1-methyl-3-piperidyl)methyl]-5-azaspiro[2.4]heptane-7-carboxamide]: 2 µM; for `C[C@@H]1CN(c2ccc(C#N)c3ncccc23)C[C@H]1C(=O)NC1CCCNCC1` (single isomer, unassigned) [Example 52B, Trans-N-(azepan-4-yl)-1-(8-cyano-5-quinolyl)-4-methyl-pyrrolidine-3-carboxamide]: 11.6 µM.
With `O=C(NC1CC2CNCC(C2)C1)C1CN(c2ccc(C(F)(F)F)c3nccnc23)CC12CC2` (stereo not drawn) [Example 15, N-(3-azabicyclo[3.3.1]nonan-7-yl)-5-[8-(trifluoromethyl)quinoxalin-5-yl]-5-azaspiro[2.4]heptane-7-carboxamide], half-maximal inhibition (IC50) was put at 7.3 µM.
The compound `CN1CCC(NC(=O)C2CN(c3ccc(C#N)c4nccnc34)CC23CC3)CC1` (single isomer, unassigned) [Example 7B, 5-(8-Cyanoquinoxalin-5-yl)-N-(1-methyl-4-piperidyl)-5-azaspiro[2.4]heptane-7-carboxamide] displayed an IC50 of 3.3 µM.
Compound `O=C(NC1CC2CCC(C1)N2)C1CN(c2ccc(C(F)(F)F)c3nccnc23)CC12CC2` (stereo not drawn) [Example 23, N-(8-azabicyclo[3.2.1]octan-3-yl)-5-[8-(trifluoromethyl)quinoxalin-5-yl]-5-azaspiro[2.4]heptane-7-carboxamide] came in with an IC50 of 10.4 µM.
With `CN1CCC(NC(=O)[C@@H]2CN(c3ccc(Cl)c4ncccc34)C[C@H]2C(F)(F)F)CC1` (relative stereo) [Example 46, Trans-1-(8-chloro-5-quinolyl)-N-(1-methyl-4-piperidyl)-4-(trifluoromethyl)pyrrolidine-3-carboxamide] the figure was 15.6 µM; with `CC(C)[C@@H]1CN(c2ccc(C#N)c3ncccc23)C[C@H]1C(=O)NC1CCN(C)CC1` (relative stereo) [Example 37, Trans-1-(8-cyano-5-quinolyl)-4-isopropyl-N-(1-methyl-4-piperidyl)pyrrolidine-3-carboxamide], 5.2 µM.
For the compound `C[C@H]1CN(c2ccc(C#N)c3ncccc23)C[C@@H]1C(=O)NC1CCN(C)CC1` [Example 16, (3R,4R)-1-(8-cyano-5-quinolyl)-4-methyl-N-(1-methyl-4-piperidyl)pyrrolidine-3-carboxamide], the IC50 was 4.6 µM.
